Results reported in patent US20210177814A1, “USE OF GUANABENZ OR DERIVATES THEREOF FOR THE TREATMENT OF TYPE I IFN-DEPENDENT PATHOLOGIES” (INSERM (Institut National de la Santé et de la Recherche …, priority 2018, published 2021).

Molecular target: T1, hTLR3 (Homo sapiens, UniProt O15455)
T1 construct: expressed in transfected cells; host or cells: HEK-Blue (HEK 293) hTLR3 reporter cells
T1 sequence (O15455 24-904): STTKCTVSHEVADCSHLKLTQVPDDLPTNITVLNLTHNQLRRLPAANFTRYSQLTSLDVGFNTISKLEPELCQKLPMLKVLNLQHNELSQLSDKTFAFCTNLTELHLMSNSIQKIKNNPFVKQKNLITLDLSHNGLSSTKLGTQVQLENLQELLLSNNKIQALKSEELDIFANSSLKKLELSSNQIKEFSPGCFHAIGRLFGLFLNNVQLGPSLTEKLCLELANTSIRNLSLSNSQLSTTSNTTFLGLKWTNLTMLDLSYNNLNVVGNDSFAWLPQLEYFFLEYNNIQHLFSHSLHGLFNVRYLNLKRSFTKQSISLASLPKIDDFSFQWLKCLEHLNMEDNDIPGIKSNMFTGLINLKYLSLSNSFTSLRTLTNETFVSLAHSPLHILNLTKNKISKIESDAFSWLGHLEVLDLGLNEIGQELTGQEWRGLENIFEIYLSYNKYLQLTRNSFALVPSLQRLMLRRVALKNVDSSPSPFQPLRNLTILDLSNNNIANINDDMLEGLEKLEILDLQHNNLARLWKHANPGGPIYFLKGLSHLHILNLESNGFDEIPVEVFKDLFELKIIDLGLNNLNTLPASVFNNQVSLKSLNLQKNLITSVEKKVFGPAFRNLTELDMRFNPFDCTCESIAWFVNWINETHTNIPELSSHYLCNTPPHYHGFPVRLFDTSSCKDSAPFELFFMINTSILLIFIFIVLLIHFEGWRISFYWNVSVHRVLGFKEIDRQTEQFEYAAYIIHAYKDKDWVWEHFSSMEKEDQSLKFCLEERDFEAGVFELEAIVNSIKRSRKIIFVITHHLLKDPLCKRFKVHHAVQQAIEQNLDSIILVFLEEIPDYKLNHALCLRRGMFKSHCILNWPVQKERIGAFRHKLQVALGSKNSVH
Test: HEK-Blue hTLR3 SEAP reporter assay
Type: cell-based
Conditions: 10 μg/mL poly I:C LMW, GBZ 50 μM
Experimental: FIG. 1: Guanabenz inhibits TLR3 and TLR9 activation in mouse Flt3-L DCs and human blood pDCs. A) Sorted bone marrow derived Flt3L-DCs were activated for 6 h with 10 μg/mL poly I:C LMW (TLR3 in DC1) or 1 μM ODN 1585 (TLR9 in pDCs). GBZ was added at 50 μM and inhibited IFN-β and Interleukin-6 (IL-6) production in activated cells. B) hTLR4, hTLR3, hTLR9 and hTLR7 expressed in the reporter HEK-Blue™ cells are inhibited by GBZ. TLR-expressing HEK-Blue™ cells were respectively activated with 100 ng/mL LPS, 10 μg/mL poly I:C LMW, 2.5 μM ODN 2006 or 5 μg/mL imiquimod, respectively. GBZ was added at 50 μM. TLR activity was measured indirectly through SEAP activity as absorbance at 405 nm. […] Protein concentration of IFN-α and TNF-α secreted were measured at the indicated time points or at 16 h. […]
Given the efficiency of GBZ on mouse TLR3 and TLR9, we turned to human TLRs, in order to extend the relevance of our observations. GBZ-mediated inhibition was first evaluated on NF-kB signaling by monitoring secreted alkaline phosphatase (SEAP) reporter levels in HEK-293 cells expressing TLR3, TLR4, TLR7, TLR9 (FIG. 1B). […] The functionality of the TLR9 transduction pathway was next evaluated by using phospho-flow detection of 40S ribosomal protein S6 (rpS6) phosphorylation, a well characterized early signaling event down-stream of TLR activation by LPS or viruses.

With `NC(N)=N/N=C/c1c(Cl)cccc1Cl` [GBZ, 2-(2,6-dichlorobenzylidene)-hydrazinecarboximidamide] the “TLR3-dependent activation of the SEAP reporter” value was “inhibited”.
